Measured values from US7799824B2, “Quaternary salt CCR2 antagonists” (OraPharma, Inc., priority 2004, dated 2010).

What follows are molecules tested against T1, CCR2 (Homo sapiens, UniProt P41597) (assay: MCP-1 Receptor Binding Assay in THP-1 Cells). Settings: MCP-1 binding to CCR2; test concentration of 25 μM, unless indicated otherwise; read-out: % Inhibition Ligand Binding.
T1 sequence (P41597 1-360 isoform P41597-2): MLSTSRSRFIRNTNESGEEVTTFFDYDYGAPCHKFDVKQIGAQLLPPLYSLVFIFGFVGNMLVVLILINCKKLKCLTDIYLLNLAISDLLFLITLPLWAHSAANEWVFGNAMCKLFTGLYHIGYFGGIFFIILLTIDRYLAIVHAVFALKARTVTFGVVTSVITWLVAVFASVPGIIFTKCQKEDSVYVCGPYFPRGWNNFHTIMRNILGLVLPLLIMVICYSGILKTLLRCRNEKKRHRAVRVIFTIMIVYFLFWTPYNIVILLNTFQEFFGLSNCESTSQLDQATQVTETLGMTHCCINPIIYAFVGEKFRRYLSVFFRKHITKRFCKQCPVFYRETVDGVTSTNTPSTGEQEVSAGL
Method: THP-1 cells were obtained from American Type Culture Collection (Manassas, Va., USA). […] The cell density was maintained between 0.5×10^6 cells/mL.
Cells were then harvested onto a filter plate, dried, and 20 μL of Microscint 20 was added to each well. Plates were counted in a TopCount NXT, Microplate Scintillation & Luminescence Counter (Perkin-Elmer Life Sciences, Inc. Boston, Mass.). Blank values (buffer only) were subtracted from all values and drug treated values were compared to vehicle treated values. 1 μM cold MCP-1 was used for nonspecific binding.

SMILES | inhibition at 25 µM [%]
C[N+](C)(Cc1ccc(NC(=O)C=Cc2ccc(Cl)c(Cl)c2)cc1)C1CCSCC1 [Cpd 41, {4-[3-(3,4-dichloro-phenyl)-acryloylamino]-benzyl}-dimethyl-(tetrahydro-thiopyran-4-yl)-ammonium iodide] | 87
C[N+]1(Cc2ccc(CNC(=O)C=Cc3cccc(C(F)(F)F)c3)cc2)CCOCC1 [Cpd 62, 4-methyl-4-(4-{[3-(3-trifluoromethyl-phenyl)-acryloylamino]-methyl}-benzyl)-morpholin-4-ium iodide] | 9

Continued, values first:

inhibition at 25 µM [%] | SMILES
34 | C[N+](C)(Cc1ccc(CNC(=O)C2=Cc3cc(Br)ccc3OC2)cc1)C1CCOCC1 [Cpd 99, (4-{[(6-bromo-2H-chromene-3-carbonyl)-amino]-methyl}-benzyl)-dimethyl-(tetrahydro-pyran-4-yl)-ammonium iodide]
58 | Cc1oc(-c2ccccc2)cc1C(=O)NCc1ccc(C[N+](C)(C)C2CCOCC2)cc1 [Cpd 149, dimethyl-(4-{[(2-methyl-5-phenyl-furan-3-carbonyl)-amino]-methyl}-benzyl)-(tetrahydro-pyran-4-yl)-ammonium iodide]
63 | C[N+](C)(Cc1ccc(CNC(=O)C=Cc2cccc(C(F)(F)F)c2)cc1)C1CCOCC1 [Cpd 64, dimethyl-(tetrahydro-pyran-4-yl)-(4-{[3-(3-trifluoromethyl-phenyl)-acryloylamino]-methyl}-benzyl)-ammonium iodide]
37 | Cc1cc(Cl)cc2c1OCC(C(=O)NCc1ccc(C[N+](C)(C)C3CCOCC3)cc1)=C2 [Cpd 121, (4-{[(6-chloro-8-methyl-2H-chromene-3-carbonyl)-amino]-methyl}-benzyl)-dimethyl-(tetrahydro-pyran-4-yl)-ammonium iodide]

Same assay, conditions: THP-1 cells, 0.5 nM 125I labeled MCP-1, 2 hours at 30° C.; read-out: Mean Ligand Binding IC50 (inhibition of MCP-1 binding to CCR2)

SMILES | IC50 [nM]
C[N+](C)(Cc1ccc(NC(=O)c2cc3cc(Cl)ccc3o2)cc1)C1CCCCC1 [Cpd 156, {4-[(5-chloro-benzofuran-2-carbonyl)-amino]-benzyl}-cyclohexyl-dimethyl-ammonium iodide] | 180
C[N+](C)(Cc1ccc(CNC(=O)C=Cc2cccc(Br)c2)cc1)C1CCCCC1 [Cpd 1, (4-{[3-(3-bromo-phenyl)-acryloylamino]-methyl}-benzyl)-cyclohexyl-dimethyl-ammonium iodide] | 2300
C[N+](C)(Cc1ccc(NC(=O)C2=Cc3c(ccc4ccccc34)OC2)cc1)C1CCSCC1 [Cpd 138, {4-[(3H-benzo[f]chromene-2-carbonyl)-amino]-benzyl}-dimethyl-(tetrahydro-thiopyran-4-yl)-ammonium iodide] | 2400
C[N+](C)(Cc1ccc(NC(=O)c2cc3cc(Cl)ccc3[nH]2)cc1)C1CCCCC1 [Cpd 164, {4-[(5-chloro-1H-indole-2-carbonyl)-amino]-benzyl}-cyclohexyl-dimethyl-ammonium iodide] | 200
C[N+](C)(Cc1ccc(NC(=O)C2=Cc3cc(Cl)c(Cl)cc3OCC2)cc1)C1CC2CCC1C2 (stereo not drawn) [Cpd 169, bicyclo[2.2.1]hept-2-yl-{4-[(7,8-dichloro-2,3-dihydro-benzo[b]oxepine-4-carbonyl)-amino]-benzyl}-dimethyl-ammonium iodide] | 240
C[N+](C)(Cc1ccc(NC(=O)C=Cc2cccc(C(F)(F)F)c2)cc1)C1CCOCC1 [Cpd 68, dimethyl-(tetrahydro-pyran-4-yl)-{4-[3-(3-trifluoromethyl-phenyl)-acryloylamino]-benzyl}-ammonium iodide] | 1500
C=CC[N+](C)(Cc1ccc(NC(=O)C=Cc2cccc(Br)c2)cc1)C1CCSCC1 (stereo not drawn) [Cpd 63, allyl-{4-[3-(3-bromo-phenyl)-acryloylamino]-benzyl}-methyl-(tetrahydro-thiopyran-4-yl)-ammonium iodide] | 3500
C[N+](C)(Cc1ccc(NC(=O)c2ccc(F)c(Cl)c2)cc1)C1CCCCC1 [Cpd 76, [4-(3-chloro-4-fluoro-benzoylamino)-benzyl]-cyclohexyl-dimethyl-ammonium iodide] | 160
C[N+](C)(Cc1ccc(CNC(=O)c2cccc(C(F)(F)F)c2)cc1)C1CCCCC1 [Cpd 3, cyclohexyl-dimethyl-{4-[(3-trifluoromethyl-benzoylamino)-methyl]-benzyl}-ammonium iodide] | 4300
C[N+](C)(Cc1ccc(NC(=O)c2ccc(Cl)c(Cl)c2)cc1)C[C@@H]1CCCO1 [Cpd 15, (2S)-[4-(3,4-dichloro-benzoylamino)-benzyl]-dimethyl-(tetrahydro-furan-2-ylmethyl)-ammonium iodide] | 2000
CC[N+](C)(Cc1ccc(NC(=O)c2ccc(Cl)c(Cl)c2)cc1)C1CCOCC1 (stereo not drawn) [Cpd 21, [4-(3,4-dichloro-benzoylamino)-benzyl]-ethyl-methyl-(tetrahydro-pyran-4-yl)-ammonium iodide] | 150
C[N+](C)(Cc1ccc(NC(=O)c2cccc(-c3ccc(C(F)(F)F)cc3)c2)cc1)C1CCOCC1 [Cpd 85, dimethyl-(tetrahydro-pyran-4-yl)-{4-[(4′-trifluoromethyl-biphenyl-3-carbonyl)-amino]-benzyl}-ammonium iodide] | 5200
C[N+](C)(Cc1ccc(NC(=O)C=Cc2ccc(Br)cc2)cc1)C1CCOCC1 [Cpd 47, {4-[3-(4-bromo-phenyl)-acryloylamino]-benzyl}-dimethyl-(tetrahydro-pyran-4-yl)-ammonium iodide] | 3700
C[N+](C)(Cc1ccc(NC(=O)c2cc(Cl)ccc2Cl)cc1)C1CCCCC1 [Cpd 81, cyclohexyl-[4-(2,5-dichloro-benzoylamino)-benzyl]-dimethyl-ammonium iodide] | 3000
C[N+](C)(Cc1ccc(NC(=O)c2ccc(-c3ccccc3)cc2)cc1)C1CCOCC1 [Cpd 88, {4-[(biphenyl-4-carbonyl)-amino]-benzyl}-dimethyl-(tetrahydro-pyran-4-yl)-ammonium iodide] | 870
C[N+](C)(Cc1ccc(NC(=O)c2ccc(Cl)c(Cl)c2)cc1)C1CCSC1 (stereo not drawn) [Cpd 19, [4-(3,4-dichloro-benzoylamino)-benzyl]-dimethyl-(tetrahydro-thien-3-yl)-ammonium iodide] | 5

The next lines start with the values.

IC50 [nM] | SMILES
320 | C[N+](C)(Cc1ccc(NC(=O)C2=Cc3cc(Cl)ccc3OC2)cc1)[C@H]1CC2CCC1C2 (stereo partly drawn) [Cpd 110, (2S)-bicyclo[2.2.1]hept-2-yl-{4-[(6-chloro-2H-chromene-3-carbonyl)-amino]-benzyl}-dimethyl-ammonium iodide]
290 | C[N+](C)(Cc1ccc(NC(=O)c2cc3cc(Br)ccc3[nH]2)cc1)C1CCOCC1 [Cpd 160, {4-[(5-bromo-1H-indole-2-carbonyl)-amino]-benzyl}-dimethyl-(tetrahydro-pyran-4-yl)-ammonium iodide]
1100 | COc1ccc2c(c1)C=C(C(=O)Nc1ccc(C[N+](C)(C)C3CCCCC3)cc1)CO2 [Cpd 106, cyclohexyl-{4-[(6-methoxy-2H-chromene-3-carbonyl)-amino]-benzyl}-dimethyl-ammonium iodide]
2000 | C[N+](C)(Cc1ccc(NC(=O)C2=Cc3cc(Cl)cc(Cl)c3OC2)cc1)C1CC2CCC1C2 (stereo not drawn) [Cpd 111, bicyclo[2.2.1]hept-2-yl-{4-[(6,8-dichloro-2H-chromene-3-carbonyl)-amino]-benzyl}-dimethyl-ammonium iodide]
3100 | C[N+](C)(Cc1ccc(CNC(=O)C=Cc2ccc(Cl)c(Cl)c2)cc1)C1CCOCC1 [Cpd 4, (4-{[3-(3,4-dichloro-phenyl)-acryloylamino]-methyl}-benzyl)-dimethyl-(tetrahydro-pyran-4-yl)-ammonium iodide]
910 | C[N+](C)(Cc1ccc(NC(=O)C2=Cc3cccc(F)c3OC2)cc1)C1CCCCC1 [Cpd 126, cyclohexyl-{4-[(8-fluoro-2H-chromene-3-carbonyl)-amino]-benzyl}-dimethyl-ammonium iodide]
1600 | C[N+](C)(Cc1ccc(NC(=O)c2cc3ccccc3o2)cc1)C1CCOCC1 [Cpd 152, {4-[(benzofuran-2-carbonyl)-amino]-benzyl}-dimethyl-(tetrahydro-pyran-4-yl)-ammonium iodide]
400 | Cc1ccc(Cl)cc1C(=O)Nc1ccc(C[N+](C)(C)C2CCOCC2)cc1 [Cpd 35, [4-(5-chloro-2-methyl-benzoylamino)-benzyl]-dimethyl-(tetrahydro-pyran-4-yl)-ammonium iodide]
100 | Cc1cc(Cl)cc2c1OCC(C(=O)Nc1ccc(C[N+](C)(C)C3CCCC3)cc1)=C2 [Cpd 119, {4-[(6-chloro-8-methyl-2H-chromene-3-carbonyl)-amino]-benzyl}-cyclopentyl-dimethyl-ammonium iodide]
190 | C[N+](C)(Cc1ccc(NC(=O)c2cc3cc(Cl)ccc3[nH]2)cc1)C1CCOCC1 [Cpd 159, {4-[(5-chloro-1H-indole-2-carbonyl)-amino]-benzyl}-dimethyl-(tetrahydro-pyran-4-yl)-ammonium iodide]
7 | C[N+](C)(Cc1ccc(NC(=O)C2=Cc3cc(Br)ccc3CCC2)cc1)C1CCOCC1 [Cpd 143, {4-[(3-bromo-8,9-dihydro-7H-benzocycloheptene-6-carbonyl)-amino]-benzyl}-dimethyl-(tetrahydro-pyran-4-yl)-ammonium iodide]
